Experiments:
[1] = biological target: T1, Purified recombinant NBD1 (Homo sapiens, UniProt P13569); assay: Aggregation analysis using differential static light scattering (DSLS): thermal stability of NBD1; type: binding; conditions: NBD1 0.2 mg/ml; Tagg of compound well minus average Tagg of DMSO control wells
T1 construct: Purified recombinant NBD1 was produced using previously described methods; made in house
In short: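 ΔTagg is compound-well aggregation temperature minus the DMSO-control mean, each Tagg being the inflection point of light scattering measured by DSLS during a 1 °C/min ramp up to 70 °C. The protein was purified NBD1 (0.2 mg/ml) in pH 7.6 buffer containing 2 mM ATP, 5 mM MgCl2 and 1% glycerol.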

[2] = tested on: Primary human bronchial epithelial cells from a ΔF508 homozygous CF donor (CF-HBE cells); assay: TECC24 recording of CFTR-mediated transepithelial chloride transport, AUC fold over benchmark VX-809 @10 μM; type: cell-based; conditions: 48 hours incubation, AUC of forskolin-stimulated IEQ
In short: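 Values are the forskolin-to-inhibitor-172 AUC of equivalent Cl− current, derived from transepithelial voltage and resistance, divided by the VX-809 AUC and binned as A <3, B 3–6, C 6–20. Cells were pre-incubated with compound for 48 h at 36.5 °C; the bath (pH 7.4) received benzamil 10 μM, forskolin 10 μM, then CFTRinh-172 20 μM.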

T1 sequence (P13569 423-646 limits assumed): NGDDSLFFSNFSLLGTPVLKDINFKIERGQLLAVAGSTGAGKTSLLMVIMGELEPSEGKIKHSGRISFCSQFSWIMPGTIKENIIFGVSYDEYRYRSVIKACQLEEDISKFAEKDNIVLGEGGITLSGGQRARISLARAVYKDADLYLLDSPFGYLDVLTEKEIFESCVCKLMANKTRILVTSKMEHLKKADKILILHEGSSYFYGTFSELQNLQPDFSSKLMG

Structure (SMILES)	DSLS (ΔTagg) [1]	TECC (test agent AUC divided by VX-809 AUC) [2]
[2H]C([2H])([2H])n1nc2nc1-c1cc(ccc1F)Oc1c(F)cc3[nH]ccc3c1CCC(=O)NCC(C)(C)CCCC2(C)c1cccc(CCC(=O)O)c1 (single isomer, unassigned) [Compound 76B, 3-[3-[23,29-difluoro-6,10,10-trimethyl-13-oxo-3-(trideuteriomethyl)-25-oxa-3,4,12,20,31-pentazapentacyclo[24.3.1.12,5.016,24.017,21]hentriaconta-1(30),2(31),4,16,18,21,23,26,28-nonaen-6-yl]phenyl]propanoic acid]	C (a value greater than 10 °C and less than or equal to 25 °C is marked “C”)	C (a value between 6 and 20 is marked “C”)
[2H]C([2H])([2H])n1nc2nc1-c1cc(ccc1F)Oc1c(F)cc3[nH]ccc3c1CCC(=O)N(C)CC(C)(C)CCCC2(C)c1cccc(CCC(=O)O)c1 (single isomer, unassigned) [Compound 77A, 3-[3-[23,29-difluoro-6,10,10,12-tetramethyl-13-oxo-3-(trideuteriomethyl)-25-oxa-3,4,12,20,31-pentazapentacyclo[24.3.1.12,5.016,24.017,21]-hentriaconta-1(30),2(31),4,16,18,21,23,26,28-nonaen-6-yl]phenyl]propanoic acid]	C (a value greater than 10 °C and less than or equal to 25 °C is marked “C”)	C (a value between 6 and 20 is marked “C”)
[2H]C([2H])([2H])n1nc2nc1-c1cc(ccc1F)Oc1c(F)cc3[nH]ccc3c1CCC(=O)N(C)CC(C)(C)CCCC2(C)c1cccc(CCC(=O)O)c1 (single isomer, unassigned) [Compound 77B, 3-[3-[23,29-difluoro-6,10,10,12-tetramethyl-13-oxo-3-(trideuteriomethyl)-25-oxa-3,4,12,20,31-pentazapentacyclo[24.3.1.12,5.016,24.017,21]-hentriaconta-1(30),2(31),4,16,18,21,23,26,28-nonaen-6-yl]phenyl]propanoic acid]	A (an ΔTagg value less than or equal to 5 °C is marked “A”)	A (a TECC value less than 3 is marked “A”)
[2H]C([2H])([2H])n1nc2nc1-c1cc(ccc1F)Oc1c(F)cc3[nH]ccc3c1CCC(=O)N(C)CC(C)(C)CCCC2(C)c1cccc(CCC(=O)NS(C)(=O)=O)c1 (single isomer, unassigned) [Compound 79A, 3-[3-[23,29-difluoro-6,10,10,12-tetramethyl-13-oxo-3-(trideuteriomethyl)-25-oxa-3,4,12,20,31-pentazapentacyclo[24.3.1.12,5.016,24.017,21]hentriaconta-1(30),2(31),4,16,18,21,23,26,28-nonaen-6-yl]phenyl]-N-methylsulfonyl-propanamide]	A (an ΔTagg value less than or equal to 5 °C is marked “A”)	A (a TECC value less than 3 is marked “A”)
[2H]C([2H])([2H])n1nc2nc1-c1cc(ccc1F)Oc1c(F)cc3[nH]ccc3c1CCC(=O)N(C)CC(C)(C)CCCC2(C)c1cccc(CCC(=O)NS(C)(=O)=O)c1 (single isomer, unassigned) [Compound 79B, 3-[3-[23,29-difluoro-6,10,10,12-tetramethyl-13-oxo-3-(trideuteriomethyl)-25-oxa-3,4,12,20,31-pentazapentacyclo[24.3.1.12,5.016,24.017,21]hentriaconta-1(30),2(31),4,16,18,21,23,26,28-nonaen-6-yl]phenyl]-N-methylsulfonyl-propanamide]	C (a value greater than 10 °C and less than or equal to 25 °C is marked “C”)	C (a value between 6 and 20 is marked “C”)
CC1(C)CCCCC(C)(c2cccc(CCC(=O)O)c2)c2cnc([nH]2)-c2cc(ccc2F)Oc2c(F)cc3[nH]ccc3c2COC(=O)N1 (single isomer, unassigned) [Compound 93A, 3-[3-(23,29-difluoro-6,11,11-trimethyl-13-oxo-14,25-dioxa-3,12,20,31-tetrazapentacyclo[24.3.1.12,5.016,24.017,21]hentriaconta-1(30),2,4,16,18,21,23,26,28-nonaen-6-yl)phenyl]propanoic acid]	A (an ΔTagg value less than or equal to 5 °C is marked “A”)	B (a value between 3 and 6 is marked “B”)
CC1(C)CCCCC(C)(c2cccc(CCC(=O)O)c2)c2cnc([nH]2)-c2cc(ccc2F)Oc2c(F)cc3[nH]ccc3c2COC(=O)N1 (single isomer, unassigned) [Compound 93B, 3-[3-(23,29-difluoro-6,11,11-trimethyl-13-oxo-14,25-dioxa-3,12,20,31-tetrazapentacyclo[24.3.1.12,5.016,24.017,21]hentriaconta-1(30),2,4,16,18,21,23,26,28-nonaen-6-yl)phenyl]propanoic acid]	C (a value greater than 10 °C and less than or equal to 25 °C is marked “C”)	A (a TECC value less than 3 is marked “A”)
CC1(C)CCCC(c2cccc(CCC(=O)O)c2)n2ccc(n2)-c2cc(ccc2F)Oc2c(F)cc3[nH]ccc3c2CCOC(=O)N1 (single isomer, unassigned) [Compound 95A, 3-[3-(23,29-difluoro-10,10-dimethyl-12-oxo-13,25-dioxa-5,11,20,31-tetrazapentacyclo-[24.3.1.12,5.016,24.017,21]hentriaconta-1(30),2(31),3,16(24),17(21),18,22,26,28-nonaen-6-yl)phenyl]propanoic acid]	B (a value above 5 °C and less than or equal to 10 °C is marked “B”)	B (a value between 3 and 6 is marked “B”)
CC1(C)CCCC(c2cccc(CCC(=O)O)c2)n2ccc(n2)-c2cc(ccc2F)Oc2c(F)cc3[nH]ccc3c2CCOC(=O)N1 (single isomer, unassigned) [Compound 95B, 3-[3-(23,29-difluoro-10,10-dimethyl-12-oxo-13,25-dioxa-5,11,20,31-tetrazapentacyclo-[24.3.1.12,5.016,24.017,21]hentriaconta-1(30),2(31),3,16(24),17(21),18,22,26,28-nonaen-6-yl)phenyl]propanoic acid]	B (a value above 5 °C and less than or equal to 10 °C is marked “B”)	B (a value between 3 and 6 is marked “B”)
CC1(C)CCOCC(c2cccc(CCC(=O)O)c2)n2ccc(n2)-c2cc(ccc2F)Oc2c(F)cc3[nH]ccc3c2COC(=O)N1 (single isomer, unassigned) [Compound 96A, 3-[3-(23,29-difluoro-11,11-dimethyl-13-oxo-8,14,25-trioxa-5,12,20,31-tetrazapentacyclo[24.3.1.12,5.016,24.017,21]hentriaconta-1(30),2(31),3,16,18,21,23,26,28-nonaen-6-yl)phenyl]propanoic acid]	C (a value greater than 10 °C and less than or equal to 25 °C is marked “C”)	B (a value between 3 and 6 is marked “B”)
CC1(C)CCOCC(c2cccc(CCC(=O)O)c2)n2ccc(n2)-c2cc(ccc2F)Oc2c(F)cc3[nH]ccc3c2COC(=O)N1 (single isomer, unassigned) [Compound 96B, 3-[3-(23,29-difluoro-11,11-dimethyl-13-oxo-8,14,25-trioxa-5,12,20,31-tetrazapentacyclo[24.3.1.12,5.016,24.017,21]hentriaconta-1(30),2(31),3,16,18,21,23,26,28-nonaen-6-yl)phenyl]propanoic acid]	C (a value greater than 10 °C and less than or equal to 25 °C is marked “C”)	C (a value between 6 and 20 is marked “C”)
Cn1nc2nc1-c1cc(ccc1F)Oc1c(F)cc3[nH]ccc3c1COC(=O)NC(C)(C)CCCCC2c1cccc(CCC(=O)O)c1 (single isomer, unassigned) [Compound 97A, 3-[3-(23,29-difluoro-3,11,11-trimethyl-13-oxo-14,25-dioxa-3,4,12,20,31-pentazapentacyclo-[24.3.1.12,5.016,24.017,21]hentriaconta-1(30),2(31),4,16,18,21,23,26,28-nonaen-6-yl)phenyl]propanoic acid]	C (a value greater than 10 °C and less than or equal to 25 °C is marked “C”)	B (a value between 3 and 6 is marked “B”)
Cn1nc2nc1-c1cc(ccc1F)Oc1c(F)cc3[nH]ccc3c1COC(=O)NC(C)(C)CCCCC2c1cccc(CCC(=O)O)c1 (single isomer, unassigned) [Compound 97B, 3-[3-(23,29-difluoro-3,11,11-trimethyl-13-oxo-14,25-dioxa-3,4,12,20,31-pentazapentacyclo-[24.3.1.12,5.016,24.017,21]hentriaconta-1(30),2(31),4,16,18,21,23,26,28-nonaen-6-yl)phenyl]propanoic acid]	C (a value greater than 10 °C and less than or equal to 25 °C is marked “C”)	B (a value between 3 and 6 is marked “B”)
Cn1nc2nc1-c1cc(ccc1F)Oc1c(F)cc3[nH]ccc3c1CCNC(=O)OCC(C)(C)CC[C@@]2(C)c1cccc(CCC(=O)O)c1 (single isomer, unassigned) [Compound 98A]	C (a value greater than 10 °C and less than or equal to 25 °C is marked “C”)	C (a value between 6 and 20 is marked “C”)
Cn1nc2nc1-c1cc(ccc1F)Oc1c(F)cc3[nH]ccc3c1CCNC(=O)OCC(C)(C)CC[C@@]2(C)c1cccc(CCC(=O)O)c1 (single isomer, unassigned) [Compound 98B]	A (an ΔTagg value less than or equal to 5 °C is marked “A”)	B (a value between 3 and 6 is marked “B”)
